Data on two compounds can be found in patent publication US20220183952A1, “FORMULATION FOR THE TOPICAL TREATMENT OF THE SKIN AND RELATED USE” (SVAS BIOSANA SPA, priority 2018, published 2022).

Assay [1] is described as follows: FRAP (Ferric reducing antioxidant power) assay.
Assay [2] can be described thus: TEAC (Trolox equivalent antioxidant capacity) assay.
The nature of assay [3]: Superoxide radical scavenging activity.

In turn, `Cc1cc(C(C)(C)C)c(O)c(C(C)(C)C)c1` [BHT, hydroxytoluene butylate] yielded an FRAP in assay [1] of 0.416 ± 0.020 Mmol Fe2+/g. In assay [2], the TEAC turned out to be 0.467 ± 0.005 mmol TE/g.
In assay [1], `O=C1O[C@H]([C@@H](O)CO)C(O)=C1O` [Vitamin C, vitamin C] came in with an FRAP of 6.57 ± 1.00 Mmol Fe2+/g. The “Superoxide radical scavenging activity, EC50” value in assay [3] came to 60 ± 0 µg/mL. Further, the TEAC in assay [2] was 7.23 ± 0.28 mmol TE/g.
